The values below come from patent US20130295060A1, “METHOD FOR CULTURING CARDIAC PROGENITOR CELLS AND USE OF CARDIAC PROGENITOR CELLS” (Ewha University-Industry Collaboration Foundation, priority 2012, published 2013).

Data set [1] relates to cardiac progenitor cells. Put plainly: Effect of concentration of antifibrinolytic agent on cardiac progenitor cell-induced degradation of hydrogel (toluidine blue). The class given is cell-based. The note with it: 0.5 or 1.0 mg/ml, 1 day culture. As to the method: 100 μl of the fibrinogen solution containing cardiac progenitor cells was added to 100 μl of each of the respective thrombin solutions containing aminomethylbenzoic acid in concentrations of […], 0.5, and 1.0 mg/ml. After complete formation of hydrogel, cardiac progenitor cells were cultured for 1 day, fixed with formalin, and stained with toluidine blue. An examination was made of the states of the fibrin hydrogels and cells.

For data set [2], the system named is cardiac progenitor cell-induced fibrinolysis. Put plainly: Inhibition of antifibrinolytic agents against cardiac progenitor cell-induced fibrinolysis (fibrin hydrogel degradation, Alexa Fluor 488-fibrinogen release). It is filed as cell-based. As for the experimental part:
The cardiac progenitor cells were mixed at a density of 2×10^5 cells per 100 μl of each of the four fibrinogen solutions with 100 μl of the thrombin solution, followed by a cross-linking reaction for 2 hrs. Following the formation of hydrogel, 300 μl of a cell culture was added to the hydrogel, and incubated for 1 day. A hydrogel void of cardiac progenitor cells was prepared for use as a control.
Antifibrinolytic agents were purchased from Sigma.

The test system of a further data set is myocardial fragments. Put plainly: Organ culture of myocardial fragments in fibrin hydrogel with antifibrinolytic agent (phase-contrast microscopy). It is filed as cell-based, human. The following applies: 100 μg/ml solution added to fibrinogen solution, organ culture 3 days. As to the method:
Four fibrinogen solutions with respective concentrations of 2.5, 5.0, 10.0, and 20.0 mg/ml were prepared, and each was added with a 100 μg/ml aminomethylbenzoic acid or tranexamic acid solution, as in Example 5. From the heart of a brain-dead patient, the myocardium was taken after the removal of both the epicardium and the endocardium. […] The myocardial fragments were added at a density of 10 per 0.5 ml of a 1 unit/ml thrombin solution. Each of the four fibrinogen solutions was mixed at a volume ratio of 1:1 with the thrombin solution containing the cardiac fragments. The resulting mixture was aliquoted in an amount of 1 ml per well into 6-multiwell tissue culture plates before performing a polymerization and cross-linking reaction to form a hydrogel.

In data set [3] the test system is cardiac progenitor cells. Put plainly: Suspension cell culture assay for differentiation into cardiomyocytes (real-time PCR). The class given is cell-based. The following applies: 1 mM in medium, 1 and 3 days. As to the method: A suspension of cardiac progenitor cells in a medium inducing myocardial differentiation was seeded at a density of 20,000 to 100,000 cells/well into polymer-coated 24-multiwell tissue culture plates preventive of cell and protein adhesion (Ultra-Low Attachment Surface, Corning, Lowell, Mass.). The medium was supplemented with 1 mM Wnt3a or Dkk1 before culturing the cardiac progenitor cells in a suspension culture condition or a monolayer culture condition. After culturing for 1 and 3 days, RNA was isolated from the cardiac progenitor cells and used to synthesize cDNA. Real-time PCR was performed on this cDNA to quantify mRNA levels of bone morphogenetic protein 2 (BMP2), SOX17, ANP, α-MHC, β-MHC, MLC2a, and MLC2v (myosin light chain-2 ventricle), which are involved in the formation of cardiospheres or the Wnt signaling pathway, thus evaluating the potential to differentiate into cardiomyocytes.
A general note: In qPCR the cycle at which signal appears reflects the starting amount.

As for `NCc1ccc(C(=O)O)cc1` [aminomethylbenzoic acid], the “cytotoxicity to the cardiac progenitor cells” value in the data set on cardiac progenitor cells [1] is “caused cytotoxicity”.

Regarding aprotinin, in data set [2] (hydrogel containing the antifibrinolytic agent, cardiac progenitor cells embedded, incubated 1 day), the “degradation of fibrin hydrogel by cardiac progenitor cells” value is reported as 95%. On to `NC[C@H]1CC[C@H](C(=O)O)CC1` [tranexamic acid], for which, in data set [2], the “antifibrinolytic activity compared with aminocaproid acid or aprotinin” value was “three times as high”. For the same molecule, the “hydrogel as cell adhesion substrate during organ culture of myocardial fragments” value with myocardial fragments is “stable, three-dimensional cell adhesion substrates”.

B1: Wnt3a: factor of the Wnt signaling pathway added to the differentiation medium (protein, UniProt P56704 19-352, looked up)
Protein Wnt-3a: SYPIWWSLAVGPQYSSLGSQPILCASIPGLVPKQLRFCRNYVEIMPSVAEGIKIGIQECQHQFRGRRWNCTTVHDSLAIFGPVLDKATRESAFVHAIASAGVAFAVTRSCAEGTAAICGCSSRHQGSPGKGWKWGGCSEDIEFGGMVSREFADARENRPDARSAMNRHNNEAGRQAIASHMHLKCKCHGLSGSCEVKTCWWSQPDFRAIGDFLKDKYDSASEMVVEKHRESRGWVETLRPRYTYFKVPTERDLVYYEASPNFCEPNPETGSFGTRDRTCNVSSHGIDGCDLLCCGRGHNARAERRREKCRCVFHWCCYVSCQECTRVYDVHTCK
Regarding B1, in the data set on cardiac progenitor cells [3], the “mRNA levels of ANP, α-MHC, β-MHC, MLC-2a and MLC2v” value is listed as “increased”; the “mRNA levels of BMP2 and SOX17” value was “increased”.

B2: Dkk1: factor of the Wnt signaling pathway added to the differentiation medium (protein, UniProt O94907 32-266, looked up)
Dickkopf-related protein 1: TLNSVLNSNAIKNLPPPLGGAAGHPGSAVSAAPGILYPGGNKYQTIDNYQPYPCAEDEECGTDEYCASPTRGGDAGVQICLACRKRRKRCMRHAMCCPGNYCKNGICVSSDQNHFRGEIEETITESFGNDHSTLDGYSRRTTLSSKMYHTKGQEGSVCLRSSDCASGLCCARHFWSKICKPVLKEGQVCTKHRRKGSHGLEIFQRCYCGEGLSCRIQKDHHQASNSSRLHTCQRH
As for B2, in the data set with cardiac progenitor cells [3], the “mRNA levels of ANP, α-MHC, β-MHC, MLC-2a and MLC2v” value is listed as “reduced”; the “mRNA levels of BMP2 and SOX17” value is “decreased”.
